# Where two headings read alike, the source gives them in different places.
# Tests used:
# Format in all cases: cell-based
# [1] = test system: Salmonella typhimurium (STY) isolates; test: MIC of compounds alone and combined with antibacterials, broth microdilution (CLSI); conditions: Salmonella enterica, TYPHIMURIUM
# Protocol: (§1) Method 2: MIC of Compounds Alone and Combined with Antibacterials Against Bacterial Isolates
# (§2) Compounds of the present invention were assessed against genotyped bacterial strains (Table 3, 4) alone or in combination with an antibacterial (Table 2). […]. Briefly, compounds alone according to the invention were prepared in DMSO and spotted (2 μL each) on sterile polystyrene plates (Corning, 3788). Combinations of compounds and antibiotics dilutions were prepared in DMSO and spotted (1 μL each) on sterile polystyrene plates (Corning, 3788). Log phase bacterial suspensions were adjusted to a final density of 5.10^5 CFU/mL in cation-adjusted Mueller-Hinton broth (ca-MHB; Becton-Dickinson and Company) and added to each well (98 μL). Microplates were incubated for 16-20 h at 35° C. in ambient air. The MIC of the compounds was defined as the lowest concentration of said compounds that prevented bacterial growth as read by visual inspection. The MIC of ATB at each compound concentration was defined as the lowest concentration of ATB that prevented bacterial growth as read by visual inspection.
# [2] = test system: Providencia stuartii (PST) isolates; test: as above; conditions: Providencia stuartii, read-out: MIC
# Protocol: as §1, §2
# [3] = test system: Proteus mirabilis (PMI) isolates; test: microbe, parasite or virus in culture; conditions: Proteus mirabilis, read-out: MIC
# Protocol: as §1
# (§3) Compounds of the present invention were assessed against genotyped bacterial strains (Table 3, 4) alone or in combination with an antibacterial (Table 2). […] Log phase bacterial suspensions were adjusted to a final density of 5.10^5 CFU/mL in cation-adjusted Mueller-Hinton broth (ca-MHB; Becton-Dickinson and Company) and added to each well (98 μL). Microplates were incubated for 16-20 h at 35° C. in ambient air. The MIC of the compounds was defined as the lowest concentration of said compounds that prevented bacterial growth as read by visual inspection. The MIC of ATB at each compound concentration was defined as the lowest concentration of ATB that prevented bacterial growth as read by visual inspection.
# [4] = test system: Citrobacter freundii (CFR) isolates; test: MIC of compounds alone and combined with antibacterials, broth microdilution (CLSI); conditions: Citrobacter freundii, read-out: MIC
# Protocol: as §1, §3
# [5] = test system: Klebsiella oxytoca (KOX) isolates; test: as above; conditions: Klebsiella oxytoca, strain KOX UFR223; genotype SHV-11, OXA-48; read-out: MIC
# Protocol: as §1, §3
# [6] = test system: Enterobacter aerogenes (EAE) isolates; test: as above; conditions: Klebsiella aerogenes, strain EAE 49469; genotype AmpC; read-out: MIC
# Protocol: as §1, §3
# [7] = test system: Morganella morganii (MMO) isolates; test: as above; conditions: Morganella morganii, genotype DHA-1, read-out: MIC
# Protocol: as §1, §3
structure (smiles),measurement,setting,value
"COCC1=C(C(=O)O)N2C(=O)[C@@H](NC(=O)/C(=N\OC)c3csc(N)n3)[C@H]2SC1 [POD, Cefpodoxime]",MIC,[1],4 µg/mL
same,MIC,"[2]; strain PST UFR94, genotype CTX-M-14",32 µg/mL
same,MIC,"[2]; strain PST UFR95, genotype TEM-24",16 µg/mL
same,MIC,"[2]; strain PST UFR235, genotype VEB-1",128 µg/mL
same,MIC,"[3]; strain PMI UFR82, genotype CMY-2",64 µg/mL
same,MIC,"[3]; strain PMI UFR122, genotype TEM-1, CTX-M-15",64 µg/mL
same,MIC,"[3]; strain PMI UFR127, genotype VEB-1",128 µg/mL
same,MIC,"[3]; strain PMI UFR130, genotype CMY-2",128 µg/mL
same,MIC,"[4]; strain CFR UFR253, genotype TEM-1, SHV-12, OXA-48",32 µg/mL
same,MIC,"[4]; strain CFR UFR254, genotype VEB-1b, OXA-48, qnrA",32 µg/mL
same,MIC,[5],0.5 µg/mL
same,MIC,[6],> 128 µg/mL
same,MIC,[7]; strain MMO UFR243,64 µg/mL
same,MIC,[7]; strain MMO UFR244,16 µg/mL
same,MIC,[7]; strain MMO UFR245,64 µg/mL
same,MIC,[7]; strain MMO UFR246,64 µg/mL
same,MIC,[7]; strain MMO UFR247,64 µg/mL

# Source: patent US20200017495A1, “NOVEL HETEROCYCLIC COMPOUNDS AND THEIR USE IN PREVENTING OR TREATING BACTERIAL INFECTIONS” (priority 2017, published 2020)
